Data taken from publication PMC9863027, “Bioactive Alpha-Pyrone and Phenolic Glucosides from the Marine-Derived Metarhizium sp. P2100” (Journal of Fungi, 2022).
Where two headings read alike, the source gives them in different places.

Legend:
[1] = target: T1, α-amylase (Sus scrofa, UniProt P00690); experiment: α-amylase inhibition activity (starch substrate, dinitrosalicylic acid reagent); type: biochemical; settings: read-out: IC50 against α-amylase
T1 sequence (P00690 16-511): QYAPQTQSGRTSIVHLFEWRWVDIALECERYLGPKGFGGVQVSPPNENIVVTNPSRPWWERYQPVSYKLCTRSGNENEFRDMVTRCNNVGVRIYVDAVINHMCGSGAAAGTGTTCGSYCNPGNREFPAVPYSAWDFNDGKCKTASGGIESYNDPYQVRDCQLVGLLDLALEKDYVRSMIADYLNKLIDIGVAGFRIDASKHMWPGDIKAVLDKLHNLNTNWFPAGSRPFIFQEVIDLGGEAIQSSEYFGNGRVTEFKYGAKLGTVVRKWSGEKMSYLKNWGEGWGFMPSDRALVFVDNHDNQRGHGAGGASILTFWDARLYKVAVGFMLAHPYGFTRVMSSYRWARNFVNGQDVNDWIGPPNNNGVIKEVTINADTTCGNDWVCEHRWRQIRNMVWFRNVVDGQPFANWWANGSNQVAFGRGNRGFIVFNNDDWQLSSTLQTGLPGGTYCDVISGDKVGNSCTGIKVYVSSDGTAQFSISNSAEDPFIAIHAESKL
Description: The α-amylase inhibition activity was measured by Milella with minor modifications. Tested compounds and 1-Deoxynojirimycin (1-DNJ) were dissolved in methanol at different concentrations. A substrate solution was prepared with 0.25% starch dissolved in 20 mM phosphate buffer solution (PBS). The enzyme (10 units/mL of α-amylase in PBS, 25 µL) and sample solutions (25 µL) were mixed in Eppendorf vials, and the mixtures were incubated at 37 °C for 10 min. Then, 25 µL of substrate solution was added to each tube, and the reaction mixture was incubated at 37 °C for 10 min. The reaction was terminated by adding 150 µL of dinitrosalicylic acid color reagent. Subsequently, the test tubes were heated for 5 min at 100 °C. After cooling at room temperature, the absorbance was measured at 540 nm. The absorbance of the blank (enzyme solution was added during the boiling) and negative controls (methanol) were recorded. Analyses were performed in triplicate, and the final sample absorbance was obtained by subtracting its corresponding blank reading. The inhibitory activity (%) was calculated as follows: % inhibition=(1−A540 sample/A540 negative control) × 100%
The half-maximal inhibitory concentration (IC50) values were calculated according to the inhibition curve and the data were shown in the layout of mean ± SEM by GraphPad Prism 6.0 (GraphPad Software, Inc., La Jolla, CA, USA).

[2] = system: NO production in mouse macrophage; experiment: NO production inhibitory activity in LPS-stimulated mouse macrophage (Griess reaction); type: cell-based; settings: concentration of 50 μM; LPS 1 μg/mL; mean ± SD
Description: The bioassay for NO production inhibitory activity was conducted as described by Xia. The mouse macrophage was seeded in 96-well plates. In each well, lipopolysaccharide (LPS) (1 μg/mL) was added after treating it with or without the tested compound for 24 h. The NO production in the supernatant was detected by the Griess reaction. The absorbance at 540 nm was measured with a microplate reader. The NO concentration and the inhibitory rate were calculated through a calibration curve. Dexamethasone was used as the positive control. Experiments were operated in triplicate, and the data were described as the mean ± SD of three independent experiments.

[3] = system: HepG2 cells; set-up: method as in earlier work; settings: read-out: IC50 cytotoxicity against HepG2; cited from earlier work
[4] = system: HEp-2 cells; set-up: method as in earlier work; settings: read-out: IC50 cytotoxicity against HEp-2; cited from earlier work
[5] = target: protein tyrosine phosphatase 1B (PTP1B); settings: read-out: IC50 against PTP1B, cited from earlier work

Molecule | NO production inhibition ratio (%) [2] [%] | also measured
4-(4′-methoxy-β-D-glucosyl)-6-pentyl-2-pyrone [Compound 1] | 53.85 ± 2.32 | IC50 [1]: 128 µM
COc1c(O[C@@H]2O[C@H](CO[C@@H]3OC[C@H](O)[C@H](O)[C@H]3O)[C@@H](O)[C@H](O)[C@H]2O)cc(OC)c2c(=O)c3ccccc3oc12 [3-O-(6-O-α-L-arabinopyranosyl)-β-D-gluco-pyranosyl-1,4-dimethoxyxanthone] |  | IC50 [3]: 16 µM; IC50 [4]: 9 µM
CCCCCCCCCCCCCCCc1cc(O[C@@H]2O[C@H](CO)[C@@H](O)[C@H](O)[C@H]2O)cc(O)c1C(=O)Oc1cc(C)c(C(=O)O)c(O)c1 [Aquastatin A] |  | IC50 ([5]; competitive manner): 0.19 µM
CCCCC(OC1OC(CO)C(OC)C(O)C1O)c1cc(OC)cc(=O)o1 [Compound 2, 7(R)-(4′-methoxy-β-D-glucosyl)-4-methoxy-6-pentyl-2-pyrone] | 62.30 ± 1.46 | 
CCCCC(OC1OC(CO)C(OC)C(O)C1O)c1cc(OC)cc(=O)o1 [Compound 3, 7(S)-(4′-methoxy-β-D-glucosyl)-4-methoxy-6-pentyl-2-pyrone] | 68.44 ± 3.75 | 
COc1cc(C(C)=O)ccc1O[C@@H]1O[C@H](CO)[C@@H](OC)[C@H](O)[C@H]1O [Compound 4, Lecaniside D] | 68.10 ± 2.07 | 
C[C@@H]1C[C@H]2[C@@H]3CCC4=CC(=O)C=C[C@]4(C)[C@@]3(F)[C@@H](O)C[C@]2(C)[C@@]1(O)C(=O)CO [Dexamethasone, reference compound] | 63.88 ± 2.07 | 
Lecaniside C |  | IC50 [5]: > 50 µM
